# Results taken from paper PMC6014988, “Precision therapeutic targeting of human cancer cell motility” (Nature Communications, 2018).
# System: CK2
# Assay: CK2 in vitro kinase assay
# Format: biochemical
# Conditions: in the presence of CDC37
# Text: CK2 activity. […] If they haven’t, I […]
# affected by KBU2046. Specifically, because of CK2’s known link to S226 we likewise suspected that it could be involved in the mechanism of action. CK2 was indeed included in the LUMIER assay (see
# Fig. 6 and Supplementary Fig. 19). We used the LUMIER assay to evaluate whether KBU2046 was altering the binding of client protein kinases to HSP90β/CDC37 heterocomplexes in intact cells, and thereby evaluated hundreds of client protein kinases. In this manner, we observed that KBU2046 did […]
# known mechanistic link, we also utilized our in vitro system to interrogate purified CK2 and specifically […]
# below, and if requested, we are happy to insert these otherwise negative findings into supplementary […]
# CK2 in vitro kinase assay. As described in Figs 6f and g, the ability of recombinant CK2 to phosphorylate serine 226 on HSP90β, in the presence of CDC37, was evaluated +/- KBU2046 (46). Reaction time in minutes
# (Mins) is denoted. KBU2046 had no effect upon serine 226 phosphorylation.
# 12. On top of the 8th page of the Results (where the authors discuss data in Fig. 5b-d and in […]
# hydrogen bond formation with Glu33 of Hsp90beta to create formation of a new pocket into which the drug binds. […]
# Additional comment 1. Figure 4c: if the data are expressed as %VC, should not the VC bar be set at […]
structure (smiles),measurement,value
"O=C1c2ccccc2OCC1c1ccc(F)cc1 (racemic) [KBU2046, (±)-3(4-fluorophenyl)chroman-4-one]",CK2 phosphorylation of S226 on HSP90β,does not inhibit
